Among the data in patent US20060270628A1, “Antiinfective 1,2,3-triazole derivatives, process for their preparation and pharmaceutical compositions containing them” (priority 2003, published 2006) are melting point and MIC values, retold here.

For data set [1], the system named is Staphylococcus aureus ATCC 33591 (DRCC 019, MRSA). In words: MIC by broth microdilution, Staphylococcus aureus 019 MRSA. The data set is classed as cell-based. Conditions: Staphylococcus aureus DRCC 019 (ATCC 33591), read-out: Antimicrobial Screening (MIC) Staphylococcus aureus 019 MRSA. The protocol:
(§1) Minimum Inhibiton Concentrations (MICs) were determined by broth microdilution technique as per the guidelines prescribed in the fifth edition of Approved Standards, NCCLS document M7-A5 Vol 20-No 2, 2000 Villinova, Pa.
(§2) Initial stock solution of the test compound was prepared in DMSO. Subsequent two fold dilutions were carried out in sterile Mueller Hinton Broth (Difco) (MHB).
(§3) Frozen cultures stocks were inoculated into 50 ml sterile MHB in 250 ml Erlyn Meyer flasks. • Composition of MHB is as follows: • Beef Extract Powder—2.0 grams/litre • Acid Digest of Casein—17.5 grams/litre • Soluble Starch—1.5 grams/litre • Final pH 7.3±0.1
(§4) Flasks were incubated for 4 to 5 hours at 35° C. on a rotary shaker at 150 rpm. Inoculum was prepared by diluting the culture in sterile MHB to obtain a turbidity of 0.5 McFarland standard. This corresponds to 1-2×10^8 CFU/ml. The stock was further diluted in sterile broth to obtain 1-2×10^6 CFU/ml. 50 μl of the above diluted inoculum was added from 1-10 wells. The plates were incubated overnight at 37° C.

For data set [2], the system named is Staphylococcus aureus ATCC 49951 (DRCC 213, Smith S). In words: MIC by broth microdilution, Staphylococcus aureus 213 Smith S. The format is cell-based. Conditions: ATCC49951, Staphylococcus aureus DRCC 213 (ATCC 49951), read-out: Antimicrobial Screening (MIC) Staphylococcus aureus 213 Smith S. As for the experimental part: as §1, §2, §3, §4
The subject of data set [3] is Staphylococcus aureus ATCC 29213 (DRCC 035, S). The experiment in a line: MIC by broth microdilution, Staphylococcus aureus 035 S. The settings on record: ATCC29213, Staphylococcus aureus DRCC 035 (ATCC 29213), read-out: Antimicrobial Screening (MIC) Staphylococcus aureus 035 S. The format is cell-based. As for the experimental part:
as §1, §2, §3, §4

Data set [4] deals with Enterococcus faecalis ATCC 29212 (DRCC 034, S). The experiment in a line: MIC by broth microdilution, Enterococcus sp 034 S. The data set is classed as cell-based. The settings on record: ATCC29212, Enterococcus DRCC 034 (E. faecalis ATCC 29212), read-out: Antimicrobial Screening (MIC) Enterococcus sp 034 S. The protocol:
as §1, §2, §3, §4

Data set [5] has as its system Enterococcus faecalis NCTC 12201 (DRCC 153, R). In words: MIC by broth microdilution, Enterococcus sp 153 R. The data set is classed as cell-based. Conditions: NCTC12201, Enterococcus DRCC 153 (E. faecalis NCTC 12201), read-out: Antimicrobial Screening (MIC) Enterococcus sp 153 R. As for the experimental part:
as §1, §2, §3, §4

Data set [6] concerns Enterococcus faecium NCTC 12202 (DRCC 154, R). The experiment in a line: MIC by broth microdilution, Enterococcus sp 154 R. The format is cell-based. The settings on record: NCTC12202, Enterococcus DRCC 154 (E. faecium NCTC 12202), read-out: Antimicrobial Screening (MIC) Enterococcus sp 154 R. As for the experimental part:
as §1, §2, §3, §4

In another data set the test system is Mycobacterium MTCC006. The experiment in a line: MIC by broth microdilution, Mycobacterium MTCC006. The format is cell-based. Conditions: read-out: Antimicrobial Screening (MIC) Mycobacterium MTCC006. As for the experimental part: as §1, §2, §3, §4
The test system of the next data set is Salmonella TA97. The experiment in a line: MIC by broth microdilution, Salmonella TA97. The data set is classed as cell-based. The settings on record: read-out: Antimicrobial Screening (MIC) Salmonella TA97. As for the experimental part: as §1, §2, §3, §4

Values after ≈ are worked out from the molar mass of the structure shown.

`COC(=S)NCc1cn(-c2ccc(-n3ccnc3)c(F)c2)nn1` [Example 10, [1-(3-Fluoro-4-imidazol-1-yl-phenyl)-1H-[1,2,3]triazol-4-ylmethyl]-thiocarbamic acid O-methyl ester] displayed a melting point of 165 to 167 °C.

The compound `CC(=O)NCc1cn(-c2ccc(-n3cccc3)c(F)c2)nn1` [Example 22, N-[1-(3-Fluoro-4-pyrrol-1-yl-phenyl)-1H-[1,2,3]triazol-4-ylmethyl]-acetamide] gave a melting point of 210 to 215 °C.

Regarding `COC(=S)NCc1cn(-c2ccc(-n3ccc(C=O)c3)cc2)nn1` [Example 2, {1-[4-(3-Formyl-pyrrol-1-yl)-phenyl]-1H-[1,2,3]triazol-4-ylmethyl}-thiocarbamic acid O methyl ester], the melting point lay in the range of 160 to 162 °C.

`CC(=O)NCc1cn(-c2ccc(-n3cncn3)c(F)c2)nn1` [Example 25, N-[1-(3-Fluoro-4-[1,2,4]triazol-1-yl-phenyl)-1H-[1,2,3]triazol-4-ylmethyl]-acetamide] had a melting point of 223 °C.

Take `CC(=S)NCc1cn(-c2ccc(-n3ccnc3)c(F)c2)nn1` [Example 24, N-[1-(3-Fluoro-4-imidazol-1-yl-phenyl)-1H-[1,2,3]triazol-4-ylmethyl]-thioacetamide]: the melting point turned out to be 185 °C.

The compound `COC(=S)NCc1cn(-c2ccc(-n3cncn3)c(F)c2)nn1` [Example 20, [1-(3-Fluoro-4-[1,2,4]triazol-1-yl-phenyl)-1H-[1,2,3]triazol-4-yl-methyl]-thiocarbamic acid O-methyl ester] gave a melting point of 179 °C. Also, the minimal inhibitory concentration (MIC) in data set [1] turned out to be 8 µg/mL (≈ 24 µM). Moreover, in [2], the MIC was 16 µg/mL (≈ 48 µM). Besides, in data set [3], the MIC came to 16 µg/mL (≈ 48 µM). The MIC in data set [4] came to 32 µg/mL (≈ 96 µM). In [5], the minimum inhibitory concentration (MIC) stood at 32 µg/mL (≈ 96 µM). Moreover, the MIC in data set [6] amounted to 32 µg/mL (≈ 96 µM). Further, in the data set on Mycobacterium MTCC006, the MIC was determined as 16 µg/mL (≈ 48 µM). In addition, in the data set on Salmonella TA97, the MIC was 32 µg/mL (≈ 96 µM).

For `COC(=S)NCc1cn(-c2cc(F)c(-n3ccc(C#N)c3)c(F)c2)nn1` [Example 8, {1-[4-(3-Cyano-pyrrol-1-yl)-3,5-difluoro-phenyl]-1H-[1,2,3]triazol-4-ylmethyl}-thiocarbamic acid O-methyl ester], the MIC in data set [1] came to 0.5 µg/mL (≈ 1.34 µM); in data set [2], 0.5 µg/mL (≈ 1.34 µM); in data set [3], 1 µg/mL (≈ 2.67 µM); in data set [4], 0.5 µg/mL (≈ 1.34 µM); in data set [5] it was 0.5 µg/mL (≈ 1.34 µM); in data set [6], 0.5 µg/mL (≈ 1.34 µM). Further, the MIC in the data set on Mycobacterium MTCC006 and in the data set on Salmonella TA97 was 32 µg/mL (≈ 85.5 µM) each time.

Take `COC(=S)NCc1cn(-c2ccc(-n3cnc(CO)c3)c(F)c2)nn1` [Example 27, {1-[3-Fluoro-4-(4-hydroxymethyl-imidazol-1-yl)-phenyl]-1H-[1,2,3]triazol-4-ylmethyl}-thiocarbamic acid O-methyl ester]: the melting point is 179 °C. In addition, in data set [1], the MIC is 1 µg/mL (≈ 2.76 µM). Further, the minimal inhibitory concentration (MIC) in data set [2] was 1 µg/mL (≈ 2.76 µM). Moreover, the minimum inhibitory concentration (MIC) in data set [3] was found to be 1 µg/mL (≈ 2.76 µM). Moreover, the MIC in data set [4] is 2 µg/mL (≈ 5.52 µM). In addition, the MIC in [5] is 1 µg/mL (≈ 2.76 µM). In addition, in data set [6], the minimal inhibitory concentration (MIC) came out at 2 µg/mL (≈ 5.52 µM). Besides, the MIC in the data set with Mycobacterium MTCC006 came out at 16 µg/mL (≈ 44.2 µM). Moreover, the minimal inhibitory concentration (MIC) in the data set on Salmonella TA97 was found to be 32 µg/mL (≈ 88.3 µM).

Turning to `COC(=S)NCc1cn(-c2ccc(-n3cccc3)cc2)nn1` [Example 1, [1-(4-Pyrrol-1-yl-phenyl)-1H-[1,2,3]triazol-4-ylmethyl]-thiocarbamic acid O-methyl ester], the melting point was 150 °C.

Take `COC(=S)NCc1cn(-c2cc(F)c(-n3ccnc3)c(F)c2)nn1` [Example 9, [1-(3,5-Difluoro-4-imidazol-1-yl-phenyl)-1H-[1,2,3]triazol-4-ylmethyl]-thiocarbamic acid O-methyl ester]: the melting point was 180 °C. Also, in data set [1], the MIC was determined as 1 µg/mL (≈ 2.85 µM). In data set [2], the minimum inhibitory concentration (MIC) amounted to 1 µg/mL (≈ 2.85 µM). Also, the MIC in data set [3] was found to be 1 µg/mL (≈ 2.85 µM). Further, the MIC in data set [4] was found to be 2 µg/mL (≈ 5.71 µM). In addition, in data set [5], the minimum inhibitory concentration (MIC) amounted to 1 µg/mL (≈ 2.85 µM). In addition, the minimal inhibitory concentration (MIC) in data set [6] is 2 µg/mL (≈ 5.71 µM). For the same compound, the MIC in the data set on Mycobacterium MTCC006 turned out to be 4 µg/mL (≈ 11.4 µM). Moreover, the MIC in the data set on Salmonella TA97 was 32 µg/mL (≈ 91.3 µM).
